Experimental data published in the supplement of paper PMC10307832.

Tests used:
Assay in all cases: relative viability (nuclei count vs DMSO), 5 days (fraction); higher = more cells survive
[1] = compound: CN[C@@H]1C[C@H]2O[C@@](C)([C@@H]1OC)n1c3ccccc3c3c4c(c5c6ccccc6n2c5c31)C(=O)NC4 [Staurosporine] + CC1(C)CCC(c2ccc(Cl)cc2)=C(CN2CCN(c3ccc(C(=O)NS(=O)(=O)c4ccc(N[C@H](CCN5CCOCC5)CSc5ccccc5)c(S(=O)(=O)C(F)(F)F)c4)cc3)CC2)C1 [Navitoclax] (partner 0.5 µM)
Procedure, shortened: (§1)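 Medians of duplicate plates are given as relative viability. That measure is the nuclei count in treated wells divided by the count in vehicle wells. Counts were taken on 4× images of lung cancer cell lines in 1536-well plates, 5 days after pin-tool dosing the day after seeding with one drug alone or a fixed anchor-drug dose plus five library-drug doses (not always all listed) in √10 steps.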

[2] = compound: O=c1[nH]cc(F)c(=O)[nH]1 [5-Fluorouracil] + NC(=O)Nc1cc(-c2cccc(F)c2)sc1C(=O)N[C@H]1CCCNC1 [AZD7762] (partner 0.2 µM)
Procedure, shortened: as §1

[3] = compound: O=c1[nH]cc(F)c(=O)[nH]1 [5-Fluorouracil] + Nc1ncn([C@H]2C[C@H](O)[C@@H](CO)O2)c(=O)n1 [Decitabine] (partner 2 µM)
Procedure, shortened: as §1

[4] = compound: O=c1[nH]cc(F)c(=O)[nH]1 [5-Fluorouracil] + O=C(CCCCCCC(=O)Nc1ccccc1)NO [Vorinostat] (partner 1 µM)
Procedure, shortened: as §1

NCI-H2126
relative viability ([1]; first compound 0.005 µM): 0.915 | relative viability ([1]; first compound 0.01581 µM): 0.624 | relative viability ([1]; first compound 0.05 µM): 0.461 | relative viability ([1]; first compound 0.1581 µM): 0.433 | relative viability ([1]; first compound 0.5 µM): 0.339 | relative viability ([2]; first compound 0.02 µM): 0.995 | relative viability ([2]; first compound 0.2 µM): 0.249 | relative viability ([2]; first compound 0.6325 µM): 0.209 | relative viability ([2]; first compound 2 µM): 0.256 | relative viability ([3]; first compound 0.02 µM): 0.518 | relative viability ([3]; first compound 0.2 µM): 0.306 | relative viability ([3]; first compound 0.6325 µM): 0.28 | relative viability ([3]; first compound 2 µM): 0.258 | relative viability ([4]; first compound 0.02 µM): 0.59 | relative viability ([4]; first compound 0.2 µM): 0.296 | relative viability ([4]; first compound 0.6325 µM): 0.279 | relative viability ([4]; first compound 2 µM): 0.262

LU99A
relative viability ([1]; first compound 0.005 µM): 0.876 | relative viability ([1]; first compound 0.01581 µM): 0.589 | relative viability ([1]; first compound 0.05 µM): 0.359 | relative viability ([1]; first compound 0.1581 µM): 0.211 | relative viability ([1]; first compound 0.5 µM): 0.128 | relative viability ([2]; first compound 0.02 µM): 0.364 | relative viability ([2]; first compound 0.2 µM): 0.458 | relative viability ([2]; first compound 0.6325 µM): 0.368 | relative viability ([2]; first compound 2 µM): 0.177 | relative viability ([3]; first compound 0.02 µM): 0.898 | relative viability ([3]; first compound 0.2 µM): 0.898 | relative viability ([3]; first compound 0.6325 µM): 0.731 | relative viability ([3]; first compound 2 µM): 0.483 | relative viability ([4]; first compound 0.02 µM): 0.497 | relative viability ([4]; first compound 0.2 µM): 0.479 | relative viability ([4]; first compound 0.6325 µM): 0.44 | relative viability ([4]; first compound 2 µM): 0.302

BEN
relative viability ([1]; first compound 0.005 µM): 0.0665 | relative viability ([1]; first compound 0.01581 µM): 0.0904 | relative viability ([1]; first compound 0.05 µM): 0.0865 | relative viability ([1]; first compound 0.1581 µM): 0.0456 | relative viability ([1]; first compound 0.5 µM): 0.042 | relative viability ([2]; first compound 0.02 µM): 0.791 | relative viability ([2]; first compound 0.2 µM): 0.804 | relative viability ([2]; first compound 0.6325 µM): 0.606 | relative viability ([2]; first compound 2 µM): 0.679 | relative viability ([3]; first compound 0.02 µM): 0.743 | relative viability ([3]; first compound 0.2 µM): 0.743 | relative viability ([3]; first compound 0.6325 µM): 0.746 | relative viability ([3]; first compound 2 µM): 0.681 | relative viability ([4]; first compound 0.02 µM): 0.566 | relative viability ([4]; first compound 0.2 µM): 0.641 | relative viability ([4]; first compound 0.6325 µM): 0.579 | relative viability ([4]; first compound 2 µM): 0.633

NCI-H1666
relative viability ([1]; first compound 0.005 µM): 0.722 | relative viability ([1]; first compound 0.01581 µM): 0.554 | relative viability ([1]; first compound 0.05 µM): 0.395 | relative viability ([1]; first compound 0.1581 µM): 0.324 | relative viability ([1]; first compound 0.5 µM): 0.202 | relative viability ([2]; first compound 0.02 µM): 0.708 | relative viability ([2]; first compound 0.2 µM): 0.389 | relative viability ([2]; first compound 0.6325 µM): 0.462 | relative viability ([2]; first compound 2 µM): 0.426 | relative viability ([3]; first compound 0.02 µM): 0.706 | relative viability ([3]; first compound 0.2 µM): 0.564 | relative viability ([3]; first compound 0.6325 µM): 0.534 | relative viability ([3]; first compound 2 µM): 0.502 | relative viability ([4]; first compound 0.02 µM): 0.981 | relative viability ([4]; first compound 0.2 µM): 0.649 | relative viability ([4]; first compound 0.6325 µM): 0.577 | relative viability ([4]; first compound 2 µM): 0.563

NCI-H1993
relative viability ([1]; first compound 0.005 µM): 1.04 | relative viability ([1]; first compound 0.01581 µM): 0.645 | relative viability ([1]; first compound 0.05 µM): 0.54 | relative viability ([1]; first compound 0.1581 µM): 0.44 | relative viability ([1]; first compound 0.5 µM): 0.435 | relative viability ([2]; first compound 0.02 µM): 0.737 | relative viability ([2]; first compound 0.2 µM): 0.622 | relative viability ([2]; first compound 0.6325 µM): 0.542 | relative viability ([2]; first compound 2 µM): 0.505 | relative viability ([3]; first compound 0.02 µM): 0.692 | relative viability ([3]; first compound 0.2 µM): 0.595 | relative viability ([3]; first compound 0.6325 µM): 0.541 | relative viability ([3]; first compound 2 µM): 0.46 | relative viability ([4]; first compound 0.02 µM): 0.846 | relative viability ([4]; first compound 0.2 µM): 0.552 | relative viability ([4]; first compound 0.6325 µM): 0.494 | relative viability ([4]; first compound 2 µM): 0.547

HCC-78
relative viability ([1]; first compound 0.005 µM): 0.711 | relative viability ([1]; first compound 0.01581 µM): 0.563 | relative viability ([1]; first compound 0.05 µM): 0.553 | relative viability ([1]; first compound 0.1581 µM): 0.358 | relative viability ([1]; first compound 0.5 µM): 0.206 | relative viability ([2]; first compound 0.02 µM): 0.562 | relative viability ([2]; first compound 0.2 µM): 0.503 | relative viability ([2]; first compound 0.6325 µM): 0.239 | relative viability ([2]; first compound 2 µM): 0.306 | relative viability ([3]; first compound 0.02 µM): 0.711 | relative viability ([3]; first compound 0.2 µM): 0.726 | relative viability ([3]; first compound 0.6325 µM): 0.427 | relative viability ([3]; first compound 2 µM): 0.327 | relative viability ([4]; first compound 0.02 µM): 0.463 | relative viability ([4]; first compound 0.2 µM): 0.426 | relative viability ([4]; first compound 0.6325 µM): 0.325 | relative viability ([4]; first compound 2 µM): 0.232

NCI-H1975
relative viability ([1]; first compound 0.005 µM): 0.611 | relative viability ([1]; first compound 0.01581 µM): 0.297 | relative viability ([1]; first compound 0.05 µM): 0.286 | relative viability ([1]; first compound 0.1581 µM): 0.215 | relative viability ([1]; first compound 0.5 µM): 0.132 | relative viability ([2]; first compound 0.2 µM): 0.596 | relative viability ([2]; first compound 0.6325 µM): 0.32 | relative viability ([2]; first compound 2 µM): 0.28 | relative viability ([3]; first compound 0.02 µM): 0.449 | relative viability ([3]; first compound 0.2 µM): 0.381 | relative viability ([3]; first compound 0.6325 µM): 0.28 | relative viability ([3]; first compound 2 µM): 0.206 | relative viability ([4]; first compound 0.02 µM): 0.748 | relative viability ([4]; first compound 0.2 µM): 0.457 | relative viability ([4]; first compound 0.6325 µM): 0.302 | relative viability ([4]; first compound 2 µM): 0.215
